Results taken from ChEMBL document CHEMBL1201862, “PubChem BioAssay data set” (2004).
Calls of active or inactive are those of the source.

Key:
[1] = target: Acylamino-acid-releasing enzyme (Homo sapiens, UniProt P13798); assay: endogenous PME-1 and serine hydrolase inhibition – cell lysate, mouse brain cytosol, FP-rhodamine, gel ABPP, selectivity assay for PME-1 inhibitor project, dose response, panel member APEH Assay Panel member description: Inhibition of N-acylaminoacyl-peptide hydrolase (APEH) (anti-target) (AID 2366)
Acylamino-acid-releasing enzyme, sequence (P13798 whole entry): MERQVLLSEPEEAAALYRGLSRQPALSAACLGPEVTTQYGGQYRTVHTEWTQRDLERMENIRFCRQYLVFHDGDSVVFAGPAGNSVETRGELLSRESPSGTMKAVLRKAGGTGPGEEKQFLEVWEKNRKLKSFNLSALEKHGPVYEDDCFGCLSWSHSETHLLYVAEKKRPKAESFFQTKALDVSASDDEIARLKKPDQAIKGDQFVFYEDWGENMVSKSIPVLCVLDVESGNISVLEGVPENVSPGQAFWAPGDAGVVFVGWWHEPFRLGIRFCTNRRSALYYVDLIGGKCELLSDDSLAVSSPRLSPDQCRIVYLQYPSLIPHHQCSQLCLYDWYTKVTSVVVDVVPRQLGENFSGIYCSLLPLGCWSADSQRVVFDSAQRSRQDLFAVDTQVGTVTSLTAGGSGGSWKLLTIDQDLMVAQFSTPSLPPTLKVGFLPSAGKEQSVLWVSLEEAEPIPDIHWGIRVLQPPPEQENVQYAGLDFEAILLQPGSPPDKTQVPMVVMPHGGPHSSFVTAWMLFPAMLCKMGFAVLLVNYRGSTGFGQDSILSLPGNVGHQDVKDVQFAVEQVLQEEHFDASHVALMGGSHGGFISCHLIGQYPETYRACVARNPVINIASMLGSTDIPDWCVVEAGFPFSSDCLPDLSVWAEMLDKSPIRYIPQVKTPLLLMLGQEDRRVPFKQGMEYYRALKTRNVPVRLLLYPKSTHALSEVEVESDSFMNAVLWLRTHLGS

[2] = target: T1, Neuropeptides B/W receptor type 1 (Homo sapiens, UniProt P48145); assay: human NPBW1 receptor blockade, IC50 – cell-based, fluorescence, dose response, late-stage follow-up (AID 463251); type: functional
T1 sequence (P48145 whole entry): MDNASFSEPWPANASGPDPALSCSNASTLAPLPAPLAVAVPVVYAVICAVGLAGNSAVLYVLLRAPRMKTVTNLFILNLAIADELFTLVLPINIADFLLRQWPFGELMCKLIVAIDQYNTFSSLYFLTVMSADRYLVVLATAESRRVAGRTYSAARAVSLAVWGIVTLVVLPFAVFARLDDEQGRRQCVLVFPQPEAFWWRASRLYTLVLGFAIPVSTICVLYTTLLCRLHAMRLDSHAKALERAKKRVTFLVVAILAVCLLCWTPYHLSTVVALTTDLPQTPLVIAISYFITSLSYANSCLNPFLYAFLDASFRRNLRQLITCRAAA

[3] = target: Melanin-concentrating hormone receptor 1 (Homo sapiens, UniProt Q99705); assay: Late-stage fluorescence-based counterscreen for antagonists of the G-protein coupled receptor 7 (GPR7): cell-based dose response assay to identify antagonists of the melanin-concentrating hormone receptor 1 (MCHR1). [Related pubchem assays (depositor defined):AID1861, AID1880, AID1952, AID2148, AID2251, AID2257, AID485339]; type: functional;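 also: stimulated with 30 nM MCH peptide agonist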
Melanin-concentrating hormone receptor 1, sequence (Q99705 whole entry): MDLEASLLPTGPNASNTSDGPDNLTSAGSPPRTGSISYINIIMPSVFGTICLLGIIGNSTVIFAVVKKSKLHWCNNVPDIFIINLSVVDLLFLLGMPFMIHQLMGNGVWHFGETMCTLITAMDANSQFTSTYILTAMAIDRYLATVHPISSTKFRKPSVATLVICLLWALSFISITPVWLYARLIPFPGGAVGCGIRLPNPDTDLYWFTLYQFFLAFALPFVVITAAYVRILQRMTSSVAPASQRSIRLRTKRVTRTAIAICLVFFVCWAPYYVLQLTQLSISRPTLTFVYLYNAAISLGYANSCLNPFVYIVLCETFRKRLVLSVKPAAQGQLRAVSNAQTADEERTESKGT

Caspase-7 = target: T2, Caspase-7 (Homo sapiens, UniProt P55210); assay: activation of caspase-7 zymogen – biochemical, absorbance, counter-screen for procaspase-3 activator project, dose response (AID 489013)
T2 sequence (P55210 whole entry): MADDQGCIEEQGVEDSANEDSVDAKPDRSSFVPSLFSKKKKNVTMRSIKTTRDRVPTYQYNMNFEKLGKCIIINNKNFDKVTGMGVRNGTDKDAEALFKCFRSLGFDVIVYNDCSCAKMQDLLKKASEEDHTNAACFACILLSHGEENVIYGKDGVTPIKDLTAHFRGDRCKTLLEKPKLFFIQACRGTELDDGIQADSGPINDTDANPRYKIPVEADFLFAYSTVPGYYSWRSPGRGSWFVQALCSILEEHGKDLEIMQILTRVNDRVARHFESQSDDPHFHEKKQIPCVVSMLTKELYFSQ

[4] = target: T3, Heat shock factor protein 1 (Mus musculus, UniProt P38532); assay: decrease of HSF1-responsive luciferase luminescence – cell-based, NIH3T3, dose retest, confirmation (AID 2382); type: functional;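 also: NIH3T3 fibroblasts with HSF1-driven luciferase reporter stressed by proteasome inhibitor MG132; luminescence from HSF1-driven luciferase expression after 8 hours of MG132 stress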
T3 sequence (P38532 whole entry): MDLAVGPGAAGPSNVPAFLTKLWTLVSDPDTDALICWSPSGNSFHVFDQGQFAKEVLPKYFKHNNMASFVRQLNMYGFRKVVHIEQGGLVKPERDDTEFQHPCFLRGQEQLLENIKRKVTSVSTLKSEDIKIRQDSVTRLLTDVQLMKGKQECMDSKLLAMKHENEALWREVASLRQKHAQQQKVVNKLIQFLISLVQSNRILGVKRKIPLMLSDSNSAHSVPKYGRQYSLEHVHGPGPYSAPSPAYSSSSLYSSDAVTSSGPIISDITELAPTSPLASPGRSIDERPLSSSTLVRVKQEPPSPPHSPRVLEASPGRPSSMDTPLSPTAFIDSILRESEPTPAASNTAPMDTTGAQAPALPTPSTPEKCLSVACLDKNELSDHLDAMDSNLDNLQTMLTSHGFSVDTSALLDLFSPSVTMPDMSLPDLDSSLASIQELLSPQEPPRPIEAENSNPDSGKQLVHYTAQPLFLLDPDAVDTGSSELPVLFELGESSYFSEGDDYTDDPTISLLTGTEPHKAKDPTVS

Caspase-3 = target: T4, Caspase-3 (Homo sapiens, UniProt P42574); assay: activation of caspase-3 zymogen – biochemical, absorbance, dose response (AID 489014)
T4 sequence (P42574 whole entry): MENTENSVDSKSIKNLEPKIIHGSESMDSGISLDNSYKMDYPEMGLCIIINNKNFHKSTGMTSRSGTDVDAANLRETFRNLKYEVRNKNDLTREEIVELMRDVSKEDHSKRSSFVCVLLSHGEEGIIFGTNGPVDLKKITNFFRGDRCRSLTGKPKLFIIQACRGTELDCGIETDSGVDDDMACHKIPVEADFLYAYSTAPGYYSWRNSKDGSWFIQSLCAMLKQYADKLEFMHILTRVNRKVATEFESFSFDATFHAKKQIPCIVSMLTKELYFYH

[5] = NIH3T3 cell viability loss – ATP luminescence, mouse fibroblasts, counter-screen, dose response (AID 2010); type: functional, cell-based;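 also: cells exposed to compound for about 90 hours before reading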
[6] = target: E3 ubiquitin-protein ligase Mdm2 (Homo sapiens, UniProt Q00987); assay: MDM2-luc reporter signal enhancers, multi-concentration potency testing, MDM2 ubiquitin-protein ligase inhibitor program, whole-cell format, luminescence detection, 384-well microplate (AID 1394); type: functional;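 also: MDM2 E3 inhibitors raise luminescence so EC50 is for signal enhancement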
E3 ubiquitin-protein ligase Mdm2, sequence (Q00987 whole entry): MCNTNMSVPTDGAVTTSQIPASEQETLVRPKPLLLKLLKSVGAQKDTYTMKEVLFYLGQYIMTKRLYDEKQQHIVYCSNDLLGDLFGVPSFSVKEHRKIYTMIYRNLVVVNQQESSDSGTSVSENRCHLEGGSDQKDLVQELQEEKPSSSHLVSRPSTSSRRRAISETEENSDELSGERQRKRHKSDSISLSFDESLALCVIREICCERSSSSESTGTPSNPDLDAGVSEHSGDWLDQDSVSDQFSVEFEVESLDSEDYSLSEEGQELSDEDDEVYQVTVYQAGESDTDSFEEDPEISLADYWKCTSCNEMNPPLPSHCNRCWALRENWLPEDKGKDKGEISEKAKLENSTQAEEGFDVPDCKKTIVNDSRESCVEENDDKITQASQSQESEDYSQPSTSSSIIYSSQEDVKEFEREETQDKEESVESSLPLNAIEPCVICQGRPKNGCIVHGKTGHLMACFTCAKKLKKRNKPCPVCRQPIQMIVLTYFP

cells [7] = type: functional, cell-based
[8] = test system: Streptococcus sp. 'group A'; assay: Streptococcus pyogenes SK(-)GAS viability under kanamycin – luminescence, BacTiterGlo, confirmation, counter-screen for streptokinase expression inhibitor project, dose response (AID 1900); type: functional, organism-based
[9] = Trypanosoma cruzi growth suppression in host cells – NIH3T3 host cells, beta-gal luminescence, confirmation (AID 2044); type: functional, cell-based;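 also: intracellular parasites grown in NIH/3T3 mouse fibroblasts as host cells; luminescent beta-galactosidase reporter signal from transgenic T. cruzi replicating inside host cells; inhibitors lower the luminescence signal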
Streptococcus = assay: GAS UMAA2166 growth inhibition – luminescence, BacTiterGlo, counter-screen for streptokinase expression inhibitor project, dose response (AID 1915); type: functional, organism-based;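 also: potency for reduction of bacterial viability or growth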
cells [10] = type: functional, cell-based; remark: listed apart in the source
Beta-galactosidase = Beta-galactosidase (Escherichia coli, UniProt Q8VNN2); type: functional
Beta-galactosidase, sequence (Q8VNN2 whole entry): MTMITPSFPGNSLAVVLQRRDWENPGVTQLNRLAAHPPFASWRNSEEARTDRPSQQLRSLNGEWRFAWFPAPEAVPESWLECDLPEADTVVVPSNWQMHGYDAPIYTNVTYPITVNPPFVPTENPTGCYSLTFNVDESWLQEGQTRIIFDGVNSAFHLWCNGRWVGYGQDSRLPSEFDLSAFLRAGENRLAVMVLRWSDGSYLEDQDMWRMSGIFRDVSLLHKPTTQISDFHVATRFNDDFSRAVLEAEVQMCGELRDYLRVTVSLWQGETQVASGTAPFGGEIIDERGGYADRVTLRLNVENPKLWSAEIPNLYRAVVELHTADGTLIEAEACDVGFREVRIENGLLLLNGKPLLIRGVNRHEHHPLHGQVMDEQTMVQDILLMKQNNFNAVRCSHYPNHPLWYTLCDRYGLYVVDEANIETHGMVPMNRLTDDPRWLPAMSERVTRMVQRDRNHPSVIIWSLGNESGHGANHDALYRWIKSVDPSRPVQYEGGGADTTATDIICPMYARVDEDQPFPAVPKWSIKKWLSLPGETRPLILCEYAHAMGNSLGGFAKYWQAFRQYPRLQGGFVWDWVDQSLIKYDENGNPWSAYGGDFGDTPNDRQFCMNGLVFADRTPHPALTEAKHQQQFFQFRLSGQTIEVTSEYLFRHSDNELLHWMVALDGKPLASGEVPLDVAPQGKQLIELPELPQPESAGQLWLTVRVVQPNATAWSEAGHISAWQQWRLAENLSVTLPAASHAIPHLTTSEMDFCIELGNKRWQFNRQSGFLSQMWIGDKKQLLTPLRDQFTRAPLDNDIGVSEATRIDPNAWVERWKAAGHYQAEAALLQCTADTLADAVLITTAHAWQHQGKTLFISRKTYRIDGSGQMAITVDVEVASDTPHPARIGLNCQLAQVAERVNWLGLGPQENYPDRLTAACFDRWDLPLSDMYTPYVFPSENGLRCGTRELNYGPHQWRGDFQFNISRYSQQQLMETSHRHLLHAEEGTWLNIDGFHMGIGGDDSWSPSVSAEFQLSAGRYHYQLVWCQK

Streptokinase A = target: T5, Streptokinase A (Streptococcus pyogenes serotype M1, UniProt P10520); assay: viability-normalized secreted streptokinase activity reduction – plasminogen activation absorbance, OD405, dose response (AID 1914); type: functional, Streptococcus pyogenes M1 GAS;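 also: secreted streptokinase activity via plasminogen activation per viability signal from cell pellet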
T5 sequence (P10520 whole entry): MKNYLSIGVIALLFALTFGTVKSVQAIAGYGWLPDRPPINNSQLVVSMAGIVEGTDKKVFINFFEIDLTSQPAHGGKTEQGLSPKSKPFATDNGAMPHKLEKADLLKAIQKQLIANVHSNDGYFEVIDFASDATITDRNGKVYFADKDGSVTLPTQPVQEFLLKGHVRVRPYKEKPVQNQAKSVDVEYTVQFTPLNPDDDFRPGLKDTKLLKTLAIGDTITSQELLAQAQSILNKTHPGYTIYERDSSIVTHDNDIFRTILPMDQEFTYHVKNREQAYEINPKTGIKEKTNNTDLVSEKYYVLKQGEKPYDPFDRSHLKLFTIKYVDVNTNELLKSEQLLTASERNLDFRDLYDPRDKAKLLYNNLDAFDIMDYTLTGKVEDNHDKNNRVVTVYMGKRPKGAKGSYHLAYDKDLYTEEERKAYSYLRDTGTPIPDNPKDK

[11] = target: T6, Kappa-type opioid receptor (Homo sapiens, UniProt P41145); type: functional
T6 sequence (P41145 whole entry): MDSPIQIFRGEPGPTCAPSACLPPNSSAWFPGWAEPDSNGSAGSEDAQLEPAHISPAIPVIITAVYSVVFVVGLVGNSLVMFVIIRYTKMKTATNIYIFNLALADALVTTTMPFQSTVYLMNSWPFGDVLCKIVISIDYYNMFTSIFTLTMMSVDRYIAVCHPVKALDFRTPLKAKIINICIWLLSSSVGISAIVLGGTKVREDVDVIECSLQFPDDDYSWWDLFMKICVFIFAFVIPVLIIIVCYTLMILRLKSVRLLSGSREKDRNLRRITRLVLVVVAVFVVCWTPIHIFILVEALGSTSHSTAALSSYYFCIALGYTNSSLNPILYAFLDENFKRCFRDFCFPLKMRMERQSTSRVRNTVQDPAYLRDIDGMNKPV

cells [12] = assay: cells
[13] = target: T6, Kappa-type opioid receptor; type: functional; remark: listed apart in the source

SMILES: CS(=O)(=O)/C(C#N)=C/c1cccn1S(=O)(=O)c1ccc([N+](=O)[O-])cc1
- IC50 [1]: > 50 µM (inactive)

SMILES: O=C(C1CCCCN1Cc1ccc2ccccc2c1)N1CCN(c2ccc([N+](=O)[O-])cc2)CC1 (centres undefined)
- IC50 [2]: 4.1 µM (active)
- IC50 [3]: 3.1 µM (active)

SMILES: N#C/C(=C\c1cccn1S(=O)(=O)c1ccccc1)S(=O)(=O)c1ccc(F)cc1
- IC50 [1]: > 50 µM (inactive)

SMILES: Cc1c(Cc2ccccc2)sc(/N=C/c2c(O)ccc3ccccc23)c1C(N)=O
- EC50 (Caspase-7): > 85.3 µM (inactive)
- EC50 [4]: > 195 µM (not active)
- EC50 (Caspase-3): > 85.3 µM (inactive)

SMILES: c1ccc(CSC2=NNC(c3ccccn3)S2)cc1 (centres undefined)
- EC50 [5]: > 60 µM (not active)
- EC50 [6]: 12.4 µM (not active)
- EC50 (cells [7]): > 350 µM (not active)
- EC50 [8]: 0.799 µM (active)
- EC50 [9]: < 0.1 µM (active)
- EC50 (Streptococcus): > 150 µM (not active)
- EC50 (cells [10]): 66.9 µM (active)
- EC50 (Beta-galactosidase): > 31.5 µM (inactive)
- EC50 (Streptokinase A): > 150 µM (not active)
- IC50 [11]: > 31.5 µM (inactive)
- EC50 (cells [12]): 1.73 µM (active)
- IC50 [13]: > 32 µM
